The test system of assay [1] is extinction of conditioned flight behaviour. Particulars: cited from earlier work; for retardation of the extinction of conditioned flight behaviour: European Journal of Pharmacology 2, 14 (1967).
Assay [2] has the same test system. Briefly: inhibition (retardation) of the extinction of conditioned flight behaviour; psychopharmacological activity. Format: in vivo. To be noted: for Potency Ratio with Respect to 4-10 ACTH: 4-10 ACTH = 1. The text has this: This invention relates to the field of pharmaceutical compounds, and to the sub-field of psychopharmacologically active compounds. The compounds in question show an inhibition of the extinction of conditioned flight behaviour, as a result of which they are eminently suitable for the treatment of mental disorders in which a stimulation of the cerebral function is desired, such as in case of senility. The invention further relates to pharmaceutical compositions containing these peptide compounds or their derivatives where the latter are an active constituent.

Where no end group is shown, it is not given here. [ ]: non-standard residue; d: D form.

As to “4-10 ACTH: the peptide containing the amino-acid sequence 4-10 from ACTH (MEHFRWG; Corticotropin; UniProt P01189 141-147, looked up, fragment)”, the “retardation of the extinction of conditioned flight behaviour” value in assay [1] is “as active as ACTH itself”.

“ACTH: natural adrenocorticotropic hormone (SYSMEHFRWGKPVGKKRRPVKVYPNGAEDESAEAFPLEF; Corticotropin; UniProt P01189 138-176, looked up)”: in assay [1], the “retardation of the extinction of conditioned flight behaviour” value is listed as “retard the extinction”.

With FRWGKPVGKK [7-16 ACTH], the “Potency Ratio with Respect to 4-10 ACTH” value in assay [2] (Table I) and in assay [2] (Table II) was 1 throughout.

For the substance F[dK]FGKPVGK, the “Potency Ratio with Respect to 4-10 ACTH” value in assay [2] (Table II) was 1.

As for F[dK]FGKPVGKK, the “Potency Ratio with Respect to 4-10 ACTH” value in assay [2] (Table I) and in assay [2] (Table II) was 100 in each case.

Regarding F[dK]FG[dK]PVGKK, the “Potency Ratio with Respect to 4-10 ACTH” value in assay [2] (Table II) was 10,000.

Consider “H-L-Met (→ O)-L-Glu-L-His-L-Phe-D-Lys-L-Phe-OH”, for which, in assay [1] (psychopharmacological activity, peptide of the earlier U.S. patents), the “activity relative to the unchanged 4-9 ACTH” value is reported as “about 1000 times”.

For the substance Phe-Arg-Trp [7-9 ACTH], the “Potency Ratio with Respect to 4-10 ACTH” value in assay [2] (Table I) is given as 0.1.

As for Phe-[dK]-Phe, the “Potency Ratio with Respect to 4-10 ACTH” value in assay [2] (Table I) is recorded as 0.1. The “psychopharmacological activity (in words)” value in assay [2] (in vivo) is “some psychopharmacological activity, although in a latent form”.

The record behind these values is US4110322A, “Peptide derivatives and pharmaceutical compositions containing same” (Akzona Incorporated, priority 1976, dated 1978).
